What all share (type): cell-based
One assay deals with T1, OAT2h (Homo sapiens, UniProt Q9Y694).
T1 construct: expressed in transfected cells; host or cells: 293 cells (HEK-293), pEBTetD/OAT2h, doxycycline-inducible
T1 sequence (Q9Y694 1-546 isoform Q9Y694-2): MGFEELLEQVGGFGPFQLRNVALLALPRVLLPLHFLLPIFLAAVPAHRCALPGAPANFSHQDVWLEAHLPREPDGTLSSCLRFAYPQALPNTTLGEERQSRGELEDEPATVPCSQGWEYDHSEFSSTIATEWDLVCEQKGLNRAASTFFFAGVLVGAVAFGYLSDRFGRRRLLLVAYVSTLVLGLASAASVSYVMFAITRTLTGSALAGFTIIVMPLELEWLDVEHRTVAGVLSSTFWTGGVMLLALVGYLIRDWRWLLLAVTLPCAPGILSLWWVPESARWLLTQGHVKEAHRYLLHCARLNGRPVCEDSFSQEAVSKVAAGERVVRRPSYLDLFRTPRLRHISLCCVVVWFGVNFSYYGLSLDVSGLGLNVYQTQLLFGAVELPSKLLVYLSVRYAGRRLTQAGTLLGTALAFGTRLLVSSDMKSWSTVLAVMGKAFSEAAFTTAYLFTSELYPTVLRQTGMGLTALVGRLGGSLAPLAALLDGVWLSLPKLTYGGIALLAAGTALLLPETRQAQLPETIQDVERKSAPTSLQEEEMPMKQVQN
Briefly: 1 min uptake into 293 cells expressing OAT2 from human. The settings on record: for clearance: 1 min uptake, 0.1 μmol/l radiotracer.

Another assay concerns the target T2, SLC22A13h (Homo sapiens, UniProt Q9Y226).
T2 construct: expressed in transfected cells; host or cells: 293 cells (HEK-293), pEBTetD plasmid, doxycycline-inducible
Briefly: uptake/accumulation in 293 cells expressing SLC22A13h. Conditions: for clearance: 1 min uptake, 0.1 μmol/l radiotracer. The procedure:
The trigonelline content of cell lysates was determined by LC-MS/MS. […] 293 cells transfected with pEBTetD plasmids for the expression of SLC22 family carriers as indicated were grown in dishes and incubated overnight with (expression on) or without (off) doxycyclin in standard culture medium. Cells were washed with uptake buffer, incubated (1 min, 37° C.) in uptake buffer with or without 10 μmol/l unlabeled trigonelline, washed, and lysed.
For measurement of solute uptake, cells were grown in surface culture on 60 mm polystyrol dishes (Nunclon 150288, Nunc, Roskilde, Denmark) precoated with 0.1 g/l poly-L-ornithine in 0.15 M boric acid-NaOH, pH 8.4. Cells were used for uptake experiments at a confluence of at least 70%. Uptake was measured at 37° C. Uptake buffer contains 125 mmol/l NaCl, 25 mmol/l HEPES-NaOH pH 7.4, 5.6 mmol/l (+)glucose, 4.8 mmol/l KCl, 1.2 mmol/l KH2PO4, 1.2 mmol/l CaCl2, and 1.2 mmol/l MgSO4. In glutamate efflux experiments, uptake buffer without KH2PO4 was used to avoid MS interference. After preincubation for at least 20 minutes in 4 ml of uptake buffer, the buffer was replaced with 2 ml of substrate in uptake buffer. The total substrate concentration if not indicated otherwise was 0.1 μmol/l for radiotracer assays and 10 μmol/l for unlabeled compounds. Incubation was stopped after 1 min by rinsing the cells four times each with 4 ml ice-cold uptake buffer. Radioactivity was determined, after cell lysis with 0.1% v/v Triton X-100 in 5 mmol/l TRIS-HCl pH 7.4, by liquid scintillation counting. For LCelectrospray ionization-MS/MS analysis, cells were lysed with methanol and stored at −20° C.
After centrifugation (1 min, 16000×g, 20° C.) of thawed lysates, 100 μl of the supernatant was mixed with either 10 μl unlabeled MPP+ iodide (0.5 ng/μl) or biphenyl-4-carboxylic acid (Sigma-Aldrich) as internal standard. Of this mixture, […] were analyzed by LCMS/MS on a triple quadrupole mass spectrometer (4000 Q TRAP, Applied Biosystems, Darmstadt, Germany). […] For quantification (scan time 150 ms), the optimal collision energy for argon-induced fragmentation in the second quadrupole was determined for each analyte. […] Sample analyte content was calculated from the analyte response ratio and the slope of the calibration curve, obtained by linear regression. With LC-MS quantitation, solute content of cell lysates was determined for 4 conditions (paired dishes, incubation time 1 min): a) transporter expression on, uptake buffer; b) expression off, uptake buffer; c) expression on, substrate in uptake buffer; d) expression off, substrate in uptake buffer. Acute uptake mediated by heterologously expressed carrier was then calculated as (c−a)−(d−b). […] Protein was measured by the BCA assay (Pierce) with bovine serum albumin as standard. […]

Assay [1] deals with T3, OAT2r (Rattus norvegicus, UniProt Q5RLM2).
T3 construct: expressed in transfected cells
T3 sequence (Q5RLM2 1-535): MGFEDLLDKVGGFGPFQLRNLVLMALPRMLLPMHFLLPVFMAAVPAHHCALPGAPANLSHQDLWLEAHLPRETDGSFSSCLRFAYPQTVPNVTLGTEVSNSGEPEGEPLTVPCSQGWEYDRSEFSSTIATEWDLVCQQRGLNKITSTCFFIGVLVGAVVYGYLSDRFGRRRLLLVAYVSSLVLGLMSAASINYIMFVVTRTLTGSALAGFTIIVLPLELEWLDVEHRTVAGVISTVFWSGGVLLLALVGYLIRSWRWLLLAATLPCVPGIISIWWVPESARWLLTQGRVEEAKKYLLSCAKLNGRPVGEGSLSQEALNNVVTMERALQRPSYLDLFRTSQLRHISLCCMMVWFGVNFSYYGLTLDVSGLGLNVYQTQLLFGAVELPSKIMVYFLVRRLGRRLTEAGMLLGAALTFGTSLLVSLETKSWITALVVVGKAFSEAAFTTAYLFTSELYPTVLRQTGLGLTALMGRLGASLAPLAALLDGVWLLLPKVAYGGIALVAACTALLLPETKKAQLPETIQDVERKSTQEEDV
The assay is described as follows: trans-stimulation of efflux of 3H-orotic acid via OAT2r. Conditions: for trans-stimulation of efflux of 3H-orotic acid (in words): 1 mmol/l compound in uptake buffer, 1 min, preloaded cells.

Assay [2] concerns the target T3, OAT2r. Briefly: time course of uptake into OAT2r-expressing 293 cells. The settings on record: for clearance kin: 10 μmol/l unlabeled substrate, 37° C., OAT2r-expressing cells; for factor by which expression of OAT2r increased the clearance: kin on versus off.

Each structure is given as a SMILES string. Where “and” joins values, the source holds several entries; their conditions need not be identical. Equal values may be shown once.

T2 sequence (Q9Y226 whole entry): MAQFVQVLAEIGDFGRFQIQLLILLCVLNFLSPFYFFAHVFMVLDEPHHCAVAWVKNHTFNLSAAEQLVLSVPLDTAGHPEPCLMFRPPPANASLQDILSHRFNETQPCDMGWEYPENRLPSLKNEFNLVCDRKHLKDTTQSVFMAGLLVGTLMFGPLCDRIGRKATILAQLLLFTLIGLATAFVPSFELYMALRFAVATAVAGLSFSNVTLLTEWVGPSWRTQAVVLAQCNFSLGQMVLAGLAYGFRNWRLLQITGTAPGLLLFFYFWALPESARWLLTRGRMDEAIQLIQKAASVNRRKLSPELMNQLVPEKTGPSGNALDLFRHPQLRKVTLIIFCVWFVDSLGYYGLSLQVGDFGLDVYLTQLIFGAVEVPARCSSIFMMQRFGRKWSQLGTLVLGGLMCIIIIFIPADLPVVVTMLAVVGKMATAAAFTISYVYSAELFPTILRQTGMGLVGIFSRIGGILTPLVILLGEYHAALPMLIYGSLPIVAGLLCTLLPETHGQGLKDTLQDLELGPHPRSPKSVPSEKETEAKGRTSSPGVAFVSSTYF
Protocol for OAT2h: Cells were used for uptake experiments at a confluence of at least 70%. Uptake was measured at 37° C. […] After preincubation for at least 20 minutes in 4 ml of uptake buffer, the buffer was replaced with 2 ml of substrate in uptake buffer. The total substrate concentration if not indicated otherwise was 0.1 μmol/l for radiotracer assays and 10 μmol/l for unlabeled compounds. Incubation was stopped after 1 min by rinsing the cells four times each with 4 ml ice-cold uptake buffer. Radioactivity was determined, after cell lysis with 0.1% v/v Triton X-100 in 5 mmol/l TRIS-HCl pH 7.4, by liquid scintillation counting. For LCelectrospray ionization-MS/MS analysis, cells were lysed with methanol and stored at −20° C.
After centrifugation (1 min, 16000×g, 20° C.) of thawed lysates, 100 μl of the supernatant was mixed with either 10 μl unlabeled MPP+ iodide (0.5 ng/μl) or biphenyl-4-carboxylic acid (Sigma-Aldrich) as internal standard. […] Atmospheric pressure ionization with positive or negative electrospray was used. For quantification (scan time 150 ms), the optimal collision energy for argon-induced fragmentation in the second quadrupole was determined for each analyte. […] Linear calibration curves were constructed from at least six standards which were prepared using control cell lysates as solvent. Sample analyte content was calculated from the analyte response ratio and the slope of the calibration curve, obtained by linear regression. With LC-MS quantitation, solute content of cell lysates was determined for 4 conditions (paired dishes, incubation time 1 min): a) transporter expression on, uptake buffer; b) expression off, uptake buffer; c) expression on, substrate in uptake buffer; d) expression off, substrate in uptake buffer. Acute uptake mediated by heterologously expressed carrier was then calculated as (c−a)−(d−b). This approach takes into account endogenous solute content and non-specific uptake. Protein was measured by the BCA assay (Pierce) with bovine serum albumin as standard. The protein content of MS samples was estimated from 3 matched cell dishes.

For the compound `N[C@@H](CCC(=O)O)C(=O)O` [glutamate], the clearance at OAT2h (sodium-free buffer) came out at 70±5 μl min-1 mg protein-1; on SLC22A13h it was 0.3±0.6 μl min-1 mg protein-1. Also, the Vmax at OAT2h (saturation of OAT2h-mediated specific uptake, 1 min, sodium-free buffer) turned out to be 36±4 nmol min-1 mg protein-1. Further, the Km on OAT2h (saturation of uptake, sodium-free buffer, measured as uptake) was determined as 1100 µM. On SLC22A13h, the “transport of glutamate (in words)” value was “do not transport”. Also, the “trans-stimulation of efflux of 3H-orotic acid (in words)” value on OAT2r [1] is “accelerated efflux”.
`O=C(O)c1cc(=O)[nH]c(=O)[nH]1` [orotic acid]: the clearance was 46±1 μl min-1 mg protein-1 and 46 μl min-1 mg protein-1 at OAT2h (uptake buffer); 3.8±0.3 μl min-1 mg protein-1 at SLC22A13h. The compound further displayed an intracellular plateau on OAT2r [2] (10 μmol/l unlabeled orotic acid, after 60 min, LC-MS/MS) of 5.8 nmol/mg protein. For the same compound, the “intracellular concentration corresponding to plateau” value at OAT2r [2] (calculated with an intracellular water space of 6.7 μl/mg protein) was 870 µmol/L. On OAT2r [2] (time course), this compound returned a clearance kin of 50.1±6.4 μl min-1 mg protein-1. Also, the “factor by which expression of OAT2r increased the clearance” value at OAT2r [2] (time course) turned out to be 86. Besides, the kout on OAT2r [2] (time course, unlabeled orotic acid, expression on) was found to be 0.09 ± 0.01 min⁻¹. Also, the “trans-stimulation of efflux of 3H-orotic acid (in words)” value on OAT2r [1] is reported as “markedly accelerated efflux”. Besides, the “cell content directly after washing” value on OAT2r [1] (1 h, 37° C. preloading with 100 μmol/l 3H-orotic acid, OAT2r-expressing cells, n=4) was 56±3 nmol/mg protein.
In turn, `C[n+]1cccc(C(=O)[O-])c1` [trigonelline] registered a carrier-mediated clearance at OAT2h (initial rate 1 min, 37° C., 10 μmol/l, LC-MS/MS, uptake buffer in the expression period) of 121±5 μl min-1 mg protein-1. Moreover, on SLC22A13h (expression of SLC22A13 in 293 cells, FIG. 14), the “accumulation of trigonelline upon carrier expression (in words)” value was “without effect”. In addition, on OAT2r [2] (time course), the clearance kin is 5.1±1.4 μl min-1 mg protein-1 and the “factor by which expression of OAT2r increased the clearance” value was around 50.

These data come from US20140090094A1, “MODULATORS OF SLC22A7” (BAYER INTELLECTUAL PROPERTY GmbH, priority 2011, published 2014).
